Numbered stars: 1 amine (or outer) side, 2 acyl side, 3 side chain; on linkers, the order of the positions; unused ones are H or OH. Bridge positions count the residues as written; N and C are the ends. Square brackets hold non-standard residues; d marks the D form. Peptide text beside a SMILES is read from it. * marks the point of attachment. X4 = CN(C)C(=N[C@@H](CCCNC(=N)N)C(=O)*)N(C)C; Pentanoyl(5-guanidino) = NC(N)=NCCCCC(=O)*; 2Nal = N[C@@H](Cc1ccc2ccccc2c1)C(=O)O; X1 = N=C(N)NCCC[C@H](NC(=N)N)C(=O)*; Glutaryl = O=C(CCCC(=O)[*:2])[*:1]; Benzoyl(4-F) = O=C(c1ccc(F)cc1)*; dCit = NC(=O)NCCC[C@@H](N)C(=O)O; Cit = NC(=O)NCCC[C@H](N)C(=O)O; Suc = O=C(CCC(=O)[*:2])[*:1]; X5 = O=C(c1ccccc1F)*; Ava = NCCCCC(=O)O
Molecular target: T1, CXCR4 receptor (Homo sapiens, UniProt P61073)
T1 construct: 50 μL of Jurkat human T-cell leukemia cells (6×10^6 cells/mL) suspended in buffer; endogenous in cells; host or cells: Jurkat human T-cell leukemia cells
T1 sequence (P61073 whole entry): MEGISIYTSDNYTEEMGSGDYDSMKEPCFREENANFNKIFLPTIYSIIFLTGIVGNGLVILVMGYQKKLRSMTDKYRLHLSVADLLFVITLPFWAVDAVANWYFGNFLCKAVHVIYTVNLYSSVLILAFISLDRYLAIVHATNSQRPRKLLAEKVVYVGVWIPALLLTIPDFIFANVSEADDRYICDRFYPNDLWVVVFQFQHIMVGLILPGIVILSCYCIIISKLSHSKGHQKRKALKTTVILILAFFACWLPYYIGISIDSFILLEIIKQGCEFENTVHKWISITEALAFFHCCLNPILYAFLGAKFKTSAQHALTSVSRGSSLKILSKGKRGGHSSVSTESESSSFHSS
Assay: Inhibition of 125I-CXCL12 binding to CXCR4 receptor on Jurkat cells
Conditions: Table 1, 125I-CXCL12, 1 hour at room temperature, compounds as acetate salt, read-out: IC50 (nM), inhibitory activity against CXCL12 binding to CXCR4 receptor
Method: After reaction, suction was made toward the reaction solution by 96 well GF/C filter plate, and each well's radioactivity was measured by top count. As the radioactivity index of 100% when the test compound was not added, and 0% when 100 nM of non-radioisotope-labeled CXCL12 was added, the inhibitory activity of each test compound was measured.

SMILES	IC50 [nM]
N=C(N)NCCC[C@H](NC(=O)[C@@H]1CSSC[C@H](NC(=O)[C@H](Cc2ccc3ccccc3c2)NC(=O)[C@H](CCC(=O)O)NC(=O)[C@@H](N)CCCNC(=N)N)C(=O)N[C@@H](Cc2ccc(O)cc2)C(=O)N[C@@H](CCCNC(=N)N)C(=O)N[C@@H](CCCCN)C(=O)N[C@H](CCCCN)C(=O)N2CCC[C@H]2C(=O)N[C@@H](Cc2ccc(O)cc2)C(=O)N[C@@H](CCCNC(=N)N)C(=O)N[C@@H](CCCNC(N)=O)C(=O)N1)C(=O)O [TE14002, H-Arg-Glu-Nal-Cys-Tyr-Arg-Lys-DLys-Pro-Tyr-Arg-Cit-Cys-Arg-OH] (H-RE[2Nal]CYRK[dK]PYR[Cit]CR-OH; disulfide 4-13)	680
N=C(N)NCCC[C@H](NC(=O)[C@@H]1CSSC[C@H](NC(=O)[C@H](Cc2ccc3ccccc3c2)NC(=O)[C@H](CCCNC(=N)N)NC(=O)[C@@H](N)CCCNC(=N)N)C(=O)N[C@@H](Cc2ccc(O)cc2)C(=O)N[C@@H](CCCNC(N)=O)C(=O)N[C@@H](CCCCN)C(=O)N[C@H](CCC(=O)O)C(=O)N2CCC[C@H]2C(=O)N[C@@H](Cc2ccc(O)cc2)C(=O)N[C@@H](CCCNC(=N)N)C(=O)N[C@@H](CCCNC(N)=O)C(=O)N1)C(N)=O [TE14011, H-Arg-Arg-Nal-Cys-Tyr-Cit-Lys-DGlu-Pro-Tyr-Arg-Cit-Cys-Arg-NH2] (H-RR[2Nal]CY[Cit]K[dE]PYR[Cit]CR-NH2; disulfide 4-13)	2.9
N=C(N)NCCC[C@H](NC(=O)[C@@H]1CSSC[C@H](NC(=O)[C@H](Cc2ccc3ccccc3c2)NC(=O)[C@H](CCCNC(=N)N)NC(=O)[C@@H](N)CCCNC(=N)N)C(=O)N[C@@H](Cc2ccc(O)cc2)C(=O)N[C@H](CCC(=O)O)C(=O)N[C@@H](CCCCN)C(=O)N[C@H](CCCNC(N)=O)C(=O)N2CCC[C@H]2C(=O)N[C@@H](Cc2ccc(O)cc2)C(=O)N[C@@H](CCCNC(=N)N)C(=O)N[C@@H](CCCNC(N)=O)C(=O)N1)C(N)=O [TE14012, H-Arg-Arg-Nal-Cys-Tyr-DGlu-Lys-DCit-Pro-Tyr-Arg-Cit-Cys-Arg-NH2] (H-RR[2Nal]CY[dE]K[dCit]PYR[Cit]CR-NH2; disulfide 4-13)	5.4
N=C(N)NCCC[C@H](NC(=O)[C@@H]1CSSC[C@H](NC(=O)[C@H](Cc2ccc3ccccc3c2)NC(=O)[C@H](CCCNC(=N)N)NC(=O)[C@@H](N)CCCNC(=N)N)C(=O)N[C@@H](Cc2ccc(O)cc2)C(=O)N[C@H](CCC(=O)O)C(=O)N[C@@H](CCCCN)C(=O)N[C@H](CCC(=O)O)C(=O)N2CCC[C@H]2C(=O)N[C@@H](Cc2ccc(O)cc2)C(=O)N[C@@H](CCCNC(=N)N)C(=O)N[C@@H](CCCNC(N)=O)C(=O)N1)C(N)=O [TE14013, H-Arg-Arg-Nal-Cys-Tyr-DGlu-Lys-DGlu-Pro-Tyr-Arg-Cit-Cys-Arg-NH2] (H-RR[2Nal]CY[dE]K[dE]PYR[Cit]CR-NH2; disulfide 4-13)	9.3
CC(=O)N[C@@H](CCCNC(=N)N)C(=O)N[C@@H](CCCNC(=N)N)C(=O)N[C@@H](Cc1ccc2ccccc2c1)C(=O)N[C@H]1CSSC[C@@H](C(=O)N[C@@H](CCCNC(=N)N)C(N)=O)NC(=O)[C@H](CCCNC(N)=O)NC(=O)[C@H](CCCNC(=N)N)NC(=O)[C@H](Cc2ccc(O)cc2)NC(=O)[C@@H]2CCCN2C(=O)[C@@H](CCC(=O)O)NC(=O)[C@H](CCCCN)NC(=O)[C@H](CCCNC(N)=O)NC(=O)[C@H](Cc2ccc(O)cc2)NC1=O [TF1, Ac-Arg-Arg-Nal-Cys-Tyr-Cit-Lys-DGlu-Pro-Tyr-Arg-Cit-Cys-Arg-NH2] (Ac-RR[2Nal]CY[Cit]K[dE]PYR[Cit]CR-NH2; disulfide 4-13)	11
N=C(N)NCCC[C@H](NC(=O)[C@@H]1CSSC[C@H](NC(=O)[C@H](Cc2ccc3ccccc3c2)NC(=O)[C@H](CCCNC(=N)N)NC(=O)[C@H](CCCNC(=N)N)NC(=N)N)C(=O)N[C@@H](Cc2ccc(O)cc2)C(=O)N[C@@H](CCCNC(N)=O)C(=O)N[C@@H](CCCCN)C(=O)N[C@H](CCC(=O)O)C(=O)N2CCC[C@H]2C(=O)N[C@@H](Cc2ccc(O)cc2)C(=O)N[C@@H](CCCNC(=N)N)C(=O)N[C@@H](CCCNC(N)=O)C(=O)N1)C(N)=O [TF2, guanyl-Arg-Arg-Nal-Cys-Tyr-Cit-Lys-DGlu-Pro-Tyr-Arg-Cit-Cys-Arg-NH2] (X1-R[2Nal]CY[Cit]K[dE]PYR[Cit]CR-NH2; disulfide 3-12)	3.3
CN(C)C(=N[C@@H](CCCNC(=N)N)C(=O)N[C@@H](CCCNC(=N)N)C(=O)N[C@@H](Cc1ccc2ccccc2c1)C(=O)N[C@H]1CSSC[C@@H](C(=O)N[C@@H](CCCNC(=N)N)C(N)=O)NC(=O)[C@H](CCCNC(N)=O)NC(=O)[C@H](CCCNC(=N)N)NC(=O)[C@H](Cc2ccc(O)cc2)NC(=O)[C@@H]2CCCN2C(=O)[C@@H](CCC(=O)O)NC(=O)[C@H](CCCCN)NC(=O)[C@H](CCCNC(N)=O)NC(=O)[C@H](Cc2ccc(O)cc2)NC1=O)N(C)C [TF3, TMguanyl-Arg-Arg-Nal-Cys-Tyr-Cit-Lys-DGlu-Pro-Tyr-Arg-Cit-Cys-Arg-NH2] (X4-R[2Nal]CY[Cit]K[dE]PYR[Cit]CR-NH2; disulfide 3-12)	9.6
N=C(N)NCCC[C@H](NC(=O)[C@@H]1CSSC[C@H](NC(=O)[C@H](Cc2ccc3ccccc3c2)NC(=O)[C@H](CCCNC(=N)N)NC(=O)[C@H](CCCNC(=N)N)NC(=O)c2ccc(F)cc2)C(=O)N[C@@H](Cc2ccc(O)cc2)C(=O)N[C@@H](CCCNC(N)=O)C(=O)N[C@@H](CCCCN)C(=O)N[C@H](CCC(=O)O)C(=O)N2CCC[C@H]2C(=O)N[C@@H](Cc2ccc(O)cc2)C(=O)N[C@@H](CCCNC(=N)N)C(=O)N[C@@H](CCCNC(N)=O)C(=O)N1)C(N)=O [TF5, 4F-benzoyl-Arg-Arg-Nal-Cys-Tyr-Cit-Lys-DGlu-Pro-Tyr-Arg-Cit-Cys-Arg-NH2] ({Benzoyl(4-F)}-RR[2Nal]CY[Cit]K[dE]PYR[Cit]CR-NH2; disulfide 4-13)	2.8
N=C(N)NCCC[C@H](NC(=O)[C@@H]1CSSC[C@H](NC(=O)[C@H](Cc2ccc3ccccc3c2)NC(=O)[C@H](CCCNC(=N)N)NC(=O)[C@H](CCCNC(=N)N)NC(=O)c2ccccc2F)C(=O)N[C@@H](Cc2ccc(O)cc2)C(=O)N[C@@H](CCCNC(N)=O)C(=O)N[C@@H](CCCCN)C(=O)N[C@H](CCC(=O)O)C(=O)N2CCC[C@H]2C(=O)N[C@@H](Cc2ccc(O)cc2)C(=O)N[C@@H](CCCNC(=N)N)C(=O)N[C@@H](CCCNC(N)=O)C(=O)N1)C(N)=O [TF6, 2F-benzoyl-Arg-Arg-Nal-Cys-Tyr-Cit-Lys-DGlu-Pro-Tyr-Arg-Cit-Cys-Arg-NH2] (X5-RR[2Nal]CY[Cit]K[dE]PYR[Cit]CR-NH2; disulfide 4-13)	3.9
N=C(N)NCCC[C@H](NC(=O)[C@@H]1CSSC[C@H](NC(=O)[C@H](Cc2ccc3ccccc3c2)NC(=O)[C@H](CCCNC(=N)N)NC(=O)CCCCN)C(=O)N[C@@H](Cc2ccc(O)cc2)C(=O)N[C@@H](CCCNC(N)=O)C(=O)N[C@@H](CCCCN)C(=O)N[C@H](CCC(=O)O)C(=O)N2CCC[C@H]2C(=O)N[C@@H](Cc2ccc(O)cc2)C(=O)N[C@@H](CCCNC(=N)N)C(=O)N[C@@H](CCCNC(N)=O)C(=O)N1)C(N)=O [TF7, APA-Arg-Nal-Cys-Tyr-Cit-Lys-DGlu-Pro-Tyr-Arg-Cit-Cys-Arg-NH2] (H-[Ava]R[2Nal]CY[Cit]K[dE]PYR[Cit]CR-NH2; disulfide 4-13)	5.7
N=C(N)NCCCCC(=O)N[C@@H](CCCNC(=N)N)C(=O)N[C@@H](Cc1ccc2ccccc2c1)C(=O)N[C@H]1CSSC[C@@H](C(=O)N[C@@H](CCCNC(=N)N)C(N)=O)NC(=O)[C@H](CCCNC(N)=O)NC(=O)[C@H](CCCNC(=N)N)NC(=O)[C@H](Cc2ccc(O)cc2)NC(=O)[C@@H]2CCCN2C(=O)[C@@H](CCC(=O)O)NC(=O)[C@H](CCCCN)NC(=O)[C@H](CCCNC(N)=O)NC(=O)[C@H](Cc2ccc(O)cc2)NC1=O [TF8, desamino-R-Arg-Nal-Cys-Tyr-Cit-Lys-DGlu-Pro-Tyr-Arg-Cit-Cys-Arg-NH2] ({Pentanoyl(5-guanidino)}-R[2Nal]CY[Cit]K[dE]PYR[Cit]CR-NH2; disulfide 3-12)	8.2
N=C(N)NCCC[C@H](NC(=O)[C@@H]1CSSC[C@H](NC(=O)[C@H](Cc2ccc3ccccc3c2)NC(=O)[C@H](CCCNC(=N)N)NC(=N)N)C(=O)N[C@@H](Cc2ccc(O)cc2)C(=O)N[C@@H](CCCNC(N)=O)C(=O)N[C@@H](CCCCN)C(=O)N[C@H](CCC(=O)O)C(=O)N2CCC[C@H]2C(=O)N[C@@H](Cc2ccc(O)cc2)C(=O)N[C@@H](CCCNC(=N)N)C(=O)N[C@@H](CCCNC(N)=O)C(=O)N1)C(N)=O [TF9, guanyl-Arg-Nal-Cys-Tyr-Cit-Lys-DGlu-Pro-Tyr-Arg-Cit-Cys-Arg-NH2] (X1-[2Nal]CY[Cit]K[dE]PYR[Cit]CR-NH2; disulfide 2-11)	250
N=C(N)NCCC[C@H](NC(=O)[C@@H]1CSSC[C@H](NC(=O)[C@H](Cc2ccc3ccccc3c2)NC(=O)[C@H](CCCNC(=N)N)NC(=O)CCC(=O)O)C(=O)N[C@@H](Cc2ccc(O)cc2)C(=O)N[C@@H](CCCNC(N)=O)C(=O)N[C@@H](CCCCN)C(=O)N[C@H](CCC(=O)O)C(=O)N2CCC[C@H]2C(=O)N[C@@H](Cc2ccc(O)cc2)C(=O)N[C@@H](CCCNC(=N)N)C(=O)N[C@@H](CCCNC(N)=O)C(=O)N1)C(N)=O [TF10, succinyl-Arg-Nal-Cys-Tyr-Cit-Lys-DGlu-Pro-Tyr-Arg-Cit-Cys-Arg-NH2] (Suc-R[2Nal]CY[Cit]K[dE]PYR[Cit]CR-NH2; disulfide 3-12)	48
N=C(N)NCCC[C@H](NC(=O)[C@@H]1CSSC[C@H](NC(=O)[C@H](Cc2ccc3ccccc3c2)NC(=O)[C@H](CCCNC(=N)N)NC(=O)CCCC(=O)O)C(=O)N[C@@H](Cc2ccc(O)cc2)C(=O)N[C@@H](CCCNC(N)=O)C(=O)N[C@@H](CCCCN)C(=O)N[C@H](CCC(=O)O)C(=O)N2CCC[C@H]2C(=O)N[C@@H](Cc2ccc(O)cc2)C(=O)N[C@@H](CCCNC(=N)N)C(=O)N[C@@H](CCCNC(N)=O)C(=O)N1)C(N)=O [TF11, glutaryl-Arg-Nal-Cys-Tyr-Cit-Lys-DGlu-Pro-Tyr-Arg-Cit-Cys-Arg-NH2] (Glutaryl-R[2Nal]CY[Cit]K[dE]PYR[Cit]CR-NH2; disulfide 3-12)	630

Reference: patent publication US8017585B2, “CXCR4 antagonist and use thereof” (priority 2002, dated 2011)
